Results: patent US20240368241A1, “SYNDECAN PEPTIDES” (Queen Mary University of London, priority 2021, published 2024)
Entries after “also recorded” stand apart in the source; their conditions may differ.

Tests used:
murine choroid explants = experiment: Ex-vivo angiogenic sprouting assay, murine choroid explants; assay type: cell-based, mouse; settings: 0.5 μM peptide, 30 ng/ml VEGF, Collagen I matrix
Experimental: FIG. 7: QM111T inhibits choroidal neovascularization. Murine choroid explants were embedded in a Collagen I matrix and supplemented with 30 ng/ml VEGF and either 0.5 μM of QM111, QM111T, QM107 or a combination.
Thoracic aortas were dissected from either male wistar rats (˜200 g) or 4-5 week old male C57BL6J mice (both obtained from Charles River, UK). The fat surrounding the aortas was removed as were any branches and the tissue sliced into <1 mm rings. Choroid membranes explants were isolated from 21 to 28 day old male C57BL6J mice. Eyes were punctured with scissors and the iris/cornea/lens and retina removed. The resultant Choroid was then cut into 1 mm3 chunks. After dissection both aortic rings and choroid explants were incubated overnight at 37° C. in Opti-MEM (Thermo Fisher Scientific) prior to embedding on ice in 0.15 ml of 1 mg/ml Collagen I (Millipore) in E4 medium (Thermo Fisher Scientific) in 48 well plates (Corning). After 30 mins incubation at 37° C., to set the Collagen, wells were supplemented with 200 ul Opti-MEM with 1% FBS. For rat aortic rings 10 ng/ml of […] (R and D Systems) was added, for mouse aortic and choroid explants 30 ng/ml was used. Treatments at the concentrations indicated were also added to this and media replenished every 3 days. Angiogenic sprouts from explants were counted after 7 days and expressed as sprouts/ring or explant.

rat aortic rings = experiment: Ex-vivo angiogenic sprouting assay, rat aortic rings; assay type: cell-based; settings: peptides 0.5 μM alone or in combination, n=30-31 rings/condition
Experimental: FIG. 1. […] Schematic diagram showing the GST fusion protein consisting of GST fused at the N-terminus of the complete coding sequence of the murine Syndecan-3 extracellular core protein. This protein was expressed and purified from bacteria and was tested in the rat aortic ring angiogenic sprouting assay. Aortas were dissected from rats before being sliced into 1 mm wide rings. They are then embedded in collagen I with 0.5 μM of either GST or S3ED purified fusion proteins. 10 ng/ml of VEGF-A was then added into feeding media to encourage angiogenesis. After 7 days, angiogenic sprouts were counted. Images were captured on day 7 using a Hamamatsu Orca ER digital camera and processed using Cell M software. Data is from at least 10 rings per condition from 8 […]. (A) Phase contrast micrographs of aortic rings after 7 days. (B) Graph showing the number of sprouts formed after 7 days (*** p≤0.005).
FIG. 4. […] Comparison of the antiangiogenic sequences in the murine and human forms of syndecan-3 (A). Amino acids which are different are highlighted in yellow. Rat aortic rings where treated with 0.5 μM of either QM107, QM111, QM111M or in combination. […]
Thoracic aortas were dissected from either male wistar rats (˜200 g) or 4-5 week old male C57BL6J mice (both obtained from Charles River, UK). […] Angiogenic sprouts from explants were counted after 7 days and expressed as sprouts/ring or explant.

HUVECs = experiment: Scratch wound cell migration assay; assay type: cell-based, human; settings: synthetic peptides alone or in combination
Experimental: FIG. 2. Miniaturization strategy to identify minimum peptide sequence for inhibition of angiogenesis. Schematic diagram showing the series of deletion mutants generated to ascertain the anti-angiogenic peptide sequence contained in syndecan-3 (A). Purified GST fusion proteins were used at a concentration of 0.5 μM in scratch wound migration assays using confluent monolayers of HUEVCs. Wound closure was measured after 7 hours. In this way we identified that the antiangiogenic properties of Syndecan-3 reside between P195 and A221 of the protein.
FIG. 3. […] Comparison of the antiangiogenic sequences in the murine and human forms of syndecan-3 (A). Amino acids which are different are highlighted in yellow. Scratch wound cell migration assays comparing the anti-migratory effects of QM107, QM111 and QM111M on HUVECS (B). […]
Confluent monolayers of HUVECs were scratched with a pipette tip, cells were then washed twice with PBS prior to the addition of growth medium supplemented with either GST fusion proteins or peptide treatments. Wounds were monitored by time lapse microscopy using an Olympus IX81 Microscope Hamamatsu Orca ER digital camera. Regions of interests in the scratch area were recorded using Cell^M software (Olympus) and micrographs of ROIs taken every 30 min for 16 hours with an Olympus IX81 inverted microscope. The initial and final gap was measured using ImageJ software (NIH).

[1] = test system: pathological retinal neovascularisation (preretinal tufts); experiment: Oxygen-induced retinopathy (OIR) mouse model; assay type: in vivo; settings: mouse pups, 0.5 μM QM111 injected into eye on return to normoxia vs PBS eye, analysed at P17
Experimental: FIG. 5. […] Data from an oxygen-induced model of retinopathy study. In this study. OIR was generated by exposing mice pups to 75% oxygen for 5 days from P7-P12. On P13, mice are injected with PBS (left eye) and 0.5 μM QM111 (right eye). They were then placed into 20% oxygen from P13-P17 where they underwent hypoxia. which led to neovascularisation taking place. OIR samples were collected at P17 and retinal structures were stained with isolectin GS-IB4. Neovascularisation was quantified by measuring the total areas where preretinal tufts were present. […] Data is from 8 mice.
Neonatal mice (both male and female) at P7 were exposed to 75% oxygen for 5 days with their nursing mothers. At P12, they were returned to normoxia. Animals were euthanized at P12 to determine the area of vaso-obliteration or at P17 to determine the rate of retinal revascularization and pre-retinal neovascularization. […] Sub retinal injections of the treatments described and controls was administered at day P12 upon return to normoxic conditions. Analysis of retinal vasculature was done as previously described. […] Pre-retinal neovascular tufts were readily distinguished from the superficial vascular plexus by focusing just above the inner limiting membrane. Areas of vascular obliteration and pathological neovascularization (neovascular tufts) were quantified using Adobe Photoshop CS3. […]

Substance | angiogenic sprouting from murine choroid explants (murine choroid explants) | angiogenic sprout formation from rat aortic rings (rat aortic rings) | endothelial cell (HUVEC) migration in scratch wound assay (HUVECs) | pathological neovascularisation (area of preretinal tufts) in oxygen-induced retinopathy [1]
LPLPLTTVA (listed as Homo sapiens) [QM111T] | inhibited angiogenesis to the same degree as QM111 and QM107 |  |  | 
PPFTATT AVIRTTGVRR LLPLPLTTVA (PPFTATTAVIRTTGVRRLLPLPLTTVA; listed as Homo sapiens) [QM111, human syndecan-3 peptide corresponding to the anti-angiogenic region] |  | inhibited to a similar degree | inhibited endothelial cell migration to the same degree | reduced pathological angiogenesis; also recorded: blocks pathological neovascularization
QM111M: mouse peptide, 27 amino acids of the anti-angiogenic region (P195-A221) of murine syndecan-3 (PPATATVADVRTTGIQGMLPLPLTTAA; UniProt Q64519 195-221, looked up, fragment) |  | inhibited to a similar degree | inhibited endothelial cell migration to the same degree | 
